Source: paper PMC8951750, “In Vitro Anticancer and Cancer-Preventive Activity of New Triterpene Glycosides from the Far Eastern Starfish Solaster pacificus” (Marine Drugs, 2022)
Several values for one entry are separate records, joined by “and”; a condition that tells them apart may be missing. Equal entries are not always repeated. Where two headings read alike, the source gives them in different places.

Key:
[1] = test system: human melanoma cells RPMI-7951; assay: Cell viability, MTS assay, RPMI-7951; format: cell-based; conditions: for SI (selectivity index) RPMI-7951: IC50 JB6 Cl41 / IC50 RPMI-7951
Description: (§1) MTS assay was used to measure the cell viability of tested normal and cancer cells. Cells were seeded into 96-well plates (“Jet Biofil”, Guangzhou, China) at density of 1.0 × 10^4/200 µL for 24 h at 37 °C in a 5% CO2 incubator. Then, cell monolayer was treated either with DMSO (control) or various concentrations of the triterpene glycosides 1–9 from S. pacificus (0.1, 0.5, 2.5, 12.5, 62.5 µM) in fresh appropriate culture medium for 24 h. Subsequently, the cells were incubated with 15 µL of 3-(4,5-dimethylthiazol-2-yl)-5-(3-carboxymethoxyphenyl)-2-(4-sulfophenyl)-2H-tetrazolium (MTS reagent) (“Promega”, Madison, WI, USA) for 3 h, and the absorbance of each well was measured at 490/630 nm using Power Wave XS microplate reader (“BioTek”, Wynusky, VT, USA). The concentration at which the compounds exert half of their maximal inhibitory effect on cell viability (IC50) was calculated by the AAT-Bioquest® online calculator [39]. The selectivity index (SI) was calculated as described previously using the following formula SI = IC50 of the compounds in normal cell (JB6 Cl41)/IC50 of the same compounds in human melanoma cell lines (SK-MEL-2, SK-MEL-28, or RPMI-7951).

JB6 Cl41 cells [2] = assay: Soft agar assay, X-ray-induced neoplastic cell transformation; format: cell-based, mouse; conditions: for inhibition at 0.1 µM: Mus musculus, JB6 Cl41, 504 h, read-out: inhibition of X-ray-induced cell transformation (JB6 Cl41 colonies formation), compound 0.1 µM, X-rays 0.5 Gy three times a week for 3 weeks, soft agar; for inhibition of X-ray-induced cell transformation (JB6 Cl41 colonies formation): compound 0.1 µM, X-rays 0.5 Gy three times a week for 3 weeks, soft agar
Description: (§2) JB6 Cl41 cells (2.4 × 10^4) were exposed to epidermal growth factor (EGF) (1 ng/mL) or phorbol 12-myristate 13-acetate (TPA) (10 ng/mL) and treated either with DMSO (control) or the triterpene glycosides 1–9 from S. pacificus (0.1, 0.5, and 1 µM) in 1 mL of 0.3% basal medium Eagle (BME) agar containing 10% FBS, 2 mM L-glutamine, and 25 µg/mL gentamicin (agar mix). The cultures were maintained in a humidified atmosphere with 5% CO2 at 37 °C for 14 days, and the cell’s colonies were scored using a microscope, Motic AE 20 (XiangAn, Xiamen, China), and the ImageJ software bundled with 64-bit Java 1.8.0_112 (NIH, Bethesda, MD, USA). To determine the effect of investigated compounds on neoplastic cell transformation induced by ionizing radiation (X-ray or UVB), JB6 Cl41 cells (3 × 10^5/dish) were seeded in 60 mm dishes and cultured for 24 h at 37 °C in 5% CO2 incubator. Then, the cells were exposed to X-rays (X-ray system XPERT 80 (KUB Technologies, Inc, Milford, CT, USA)) at dose of 0.5 Gy or UVB (wavelengths below 312 nm) (Bio-Link UV irradiation system, Vilber, France) at dose of 0.3 J/cm^2 three times a week for 3 weeks. Irradiated JB6 Cl41 cells (2.4 × 10^4) were treated either with DMSO (control) or the triterpene glycosides 1–9 from S. pacificus (0.1, 0.5, and 1 µM) in 1 mL of agar mix. The cultures were maintained in a humidified atmosphere with 5% CO2 at 37 °C for 14 days, and the cell’s colonies were scored using a microscope, Motic AE 20 (XiangAn, Xiamen 361101, China), and the ImageJ software bundled with 64-bit Java 1.8.0_112 (NIH, Bethesda, MD, USA).

SK-MEL-2 cells = assay: Soft agar assay, colony formation of cancer cells; format: cell-based, human; conditions: compound 0.1 µM, 14 days
Description: SK-MEL-2 cells (2.4 × 10^4) were treated either with DMSO (control) or the triterpene glycosides 1–9 from S. pacificus (0.1 µM) in 1 mL of agar mix. After 14 days, colonies of cancer cells were scored as described above.

[3] = test system: Human erythrocytes (O(I)+); assay: Hemolysis assay; format: cell-based; conditions: 1 h, 37 °C, PBS pH 7.4
Description: Human erythrocytes (O(I)+) were obtained from Vladivostok blood transfusion station. Erythrocytes were centrifuged with PBS (pH 7.4) for 5 min at 4 °C by 450× g on a LABOFUGE 400R (Heraeus, Hanau, Germany) centrifuge three times. Then, the residue of erythrocytes was resuspended in ice-cold PBS (pH 7.4) to a final optical density of 2.0 at 700 nm and kept on ice. For the hemolytic assay, 180 µL of erythrocyte suspension was mixed with 20 µL of Cucumarioside A2-2 (positive control) and investigated compounds at concentrations range of 0.1, 0.5, 1, 5, 10 µM in V-bottom 96-well plates. After 1 h of incubation at 37 °C, plates were centrifuged at 900× g for 10 min on an LMC-3000 (Biosan, Riga, Latvia) laboratory centrifuge. Then, we carefully selected 100 µL of supernatant and transferred it to new flat plates, respectively. Lysis of erythrocytes was determined by measuring the concentration of hemoglobin in the supernatant with a microplate photometer Multiskan FC (Thermo Fisher Scientific, Waltham, MA, USA) at 570 nm. The effective dose causing 50% of erythrocytes hemolysis (ED50) was calculated using the computer program SigmaPlot 10.0. All experiments were made in triplicate, p < 0.01.

[4] = test system: non-cancerous mouse epidermal cells JB6 Cl41; assay: Cell viability, MTS assay, JB6 Cl41; format: cell-based
Description: as §1

[5] = test system: human melanoma cells SK-MEL-28; assay: Cell viability, MTS assay, SK-MEL-28; format: cell-based; conditions: for SI (selectivity index) SK-MEL-28: IC50 JB6 Cl41 / IC50 SK-MEL-28
Description: as §1

JB6 Cl41 cells [6] = assay: Soft agar assay, TPA-induced neoplastic cell transformation; format: cell-based, mouse; conditions: for inhibition of TPA-induced neoplastic transformation of JB6 Cl41 cells: compound 0.1 µM, TPA 10 ng/mL, soft agar, 2 weeks, vs positive control, 0.1 µM
Description: as §2

JB6 Cl41 cells [7] = assay: Soft agar assay, EGF-induced neoplastic cell transformation; format: cell-based, mouse; conditions: for inhibition of EGF-induced neoplastic transformation of JB6 Cl41 cells: compound 0.1 µM, EGF 1 ng/mL, soft agar, 2 weeks, vs positive control, 0.1 µM
Description: as §2

[8] = test system: human melanoma cells SK-MEL-2; assay: Cell viability, MTS assay, SK-MEL-2; format: cell-based; conditions: for SI (selectivity index) SK-MEL-2: IC50 JB6 Cl41 / IC50 SK-MEL-2
Description: as §1

JB6 Cl41 cells [9] = assay: Soft agar assay, UVB-induced neoplastic cell transformation; format: cell-based, mouse; conditions: for inhibition of UVB-induced neoplastic cell transformation (decrease of colonies number): compound 0.1 µM, UVB 0.3 J/cm^2 three times a week for 3 weeks, soft agar
Description: as §2

[10] = read-out: IC50, cell viability RPMI-7951, MTS assay, 24 h
[11] = read-out: IC50, cell viability JB6 Cl41, MTS assay, 24 h, normal cells
[12] = read-out: IC50, cell viability SK-MEL-28, MTS assay, 24 h
[13] = read-out: IC50, cell viability SK-MEL-2, MTS assay, 24 h

| Compound | SI (selectivity index) RPMI-7951 [1] | IC50 [1, 10] [µM] | inhibition at 0.1 µM (JB6 Cl41 cells [2]) [%] | decrease of colonies number of SK-MEL-2 cells (colony formation) (SK-MEL-2 cells) [%] | ED50, effective dose causing 50% of erythrocytes hemolysis [3] | IC50 [4, 11] [µM] | IC50 [5, 12] [µM] | inhibition of TPA-induced neoplastic transformation of JB6 Cl41 cells (JB6 Cl41 cells [6]) [%] | inhibition of EGF-induced neoplastic transformation of JB6 Cl41 cells (JB6 Cl41 cells [7]) [%] | IC50 [8, 13] [µM] | SI (selectivity index) SK-MEL-28 [5] | SI (selectivity index) SK-MEL-2 [8] | inhibition of UVB-induced neoplastic cell transformation (decrease of colonies number) (JB6 Cl41 cells [9]) | further results |
| --- | --- | --- | --- | --- | --- | --- | --- | --- | --- | --- | --- | --- | --- | --- |
| COC1C(O)C(CO)OC(OC2C(O)C(CO)OC(OC3C(C)OC(OC4C(OC5CCC6(C)C7CCC89C(=O)OC(C)(C=CC=C(C)C)C8C(OC(C)=O)CC9(C)C7=CCC6C5(C)C)OCC(O)C4O)C(OC4OCC(O)C(O)C4O)C3O)C2O)C1O (stereo not shown) [Compound 4, cucumarioside D] | 0.2 | 29.2 ± 0.04 | 97 | 70 | 2.48 µM and 2.48 ± 0.05 µM | 6.1 ± 0.4 | 8.3 ± 0.1 | 99 | 92 | 0.67 ± 0.04 |  |  |  | inhibition at 0.1 µM (JB6 Cl41 cells [9]; Mus musculus, JB6 Cl41, light or radiation study, 504 h, read-out: inhibition of UVB-induced neoplastic cell transformation (decrease of colonies number), compound 0.1 µM, UVB 0.3 J/cm^2 three times a week for 3 weeks, soft agar): 86% |
| CC(=O)OC1CC2(C)C3=CCC4C(C)(C)C(OC5OCC(O)C(O)C5OC5OC(C)C(OC6OC(CO)C(O)C(O)C6O)C(O)C5OC5OCC(O)C(O)C5O)CCC4(C)C3CCC23C(=O)OC(C)(C=CC=C(C)C)C13 [Compound 5, 3β-O-{β-D-glucopyranosyl-(1→4)-[β-D-xylopyranosyl-(1→2)]-β-D-quinovopyranosyl-(1→2)-β-D-xylopyranosyl}-16β-acetoxyholosta-7,22Z,24-triene] | 0.23 |  |  | 13 | 7.02 ± 0.46 µM |  |  | 17 | 16 |  | 0.3 | 0.2 | not effective | IC50 ([1]; MTS assay, 24 h, read-out: IC50, cell viability RPMI-7951): 38 ± 0.3 µM; inhibition of X-ray-induced cell transformation (JB6 Cl41 colonies formation) (JB6 Cl41 cells [2]): less than 15%; IC50 ([4]; MTS assay, 24 h, normal cells, read-out: IC50, cell viability JB6 Cl41): 8.7 ± 0.2 µM; IC50 ([5]; MTS assay, 24 h, read-out: IC50, cell viability SK-MEL-28): 25.3 ± 0.09 µM; IC50 ([8]; MTS assay, 24 h, read-out: IC50, cell viability SK-MEL-2): 37.3 ± 0.01 µM |
| COC1C(O)COC(OC2C(O)C(COS(=O)(=O)O)OC(OC3C(C)OC(OC4C(OC5CCC6(C)C7CCC89C(=O)OC(C)(C=CC=C(C)C)C8C(OC(C)=O)CC9(C)C7=CCC6C5(C)C)OCC(O)C4O)C(O)C3O)C2O)C1O [Compound 6, 3β-O-{3-O-methyl-β-D-xylopyranosyl-(1→3)-6-O-6-sulfoxy-β-D-glucopyranosyl-(1→4)-β-D-quinovopyranosyl-(1→2)-β-D-xylopyranosyl}-16β-acetoxyholosta-7,22Z,24-triene] | 0.2 | 32.4 ± 0.5 |  | 40 | 1.68 µM and 1.68 ± 0.14 µM | 6.6 ± 0.3 | 8.2 ± 0.2 | 61 | 44 | 0.69 ± 0.03 | 0.8 | 9.5 |  | inhibition of X-ray-induced cell transformation (JB6 Cl41 colonies formation) (JB6 Cl41 cells [2]; 0.1 µM): 23%; inhibition of UVB-induced neoplastic cell transformation (decrease of colonies number) (JB6 Cl41 cells [9]; 0.1 µM): 10% |
| C=C(C)C1C2CC3(C)C4=CCC5C(C)(C)C(OC6OCC(O)C(O)C6OC6OC(C)C(OC7OC(CO)C(O)C(OC8OC(CO)C(O)C(OC)C8O)C7O)C(O)C6OC6OCC(O)C(O)C6O)CCC5(C)C4CCC13C(=O)O2 [Compound 7, 3β-O-{3-O-methyl-β-D-glucopyranosyl-(1→3)-β-D-glucopyranosyl-(1→4)-[β-D-xylopyranosyl-(1→2)]-β-D-quinovopyranosyl-(1→2)-β-D-xylopyranosyl}-23,24,25,26,27-pentanor-5α-lanosta-7,20(22)-diene-18(16)-lactone] | 0.25 |  | < 15 | 15 | 4.07 ± 0.10 µM |  |  |  |  |  | 0.3 |  | not effective | IC50 ([1]; Homo sapiens, RPMI-7951, 24 h, read-out: IC50, cell viability RPMI-7951, MTS assay, 24 h): 31.4 ± 0.1 µM; IC50 ([4]; Mus musculus, JB6 Cl41, 24 h, read-out: IC50, cell viability JB6 Cl41, MTS assay, 24 h, normal cells): 8.7 ± 0.07 µM; IC50 ([5]; Homo sapiens, SK-MEL-28, 24 h, read-out: IC50, cell viability SK-MEL-28, MTS assay, 24 h): 23 ± 0.07 µM; inhibition at 0.1 µM (JB6 Cl41 cells [6]; Mus musculus, JB6 Cl41, 336 h, read-out: inhibition of TPA-induced neoplastic transformation of JB6 Cl41 cells, compound 0.1 µM, TPA 10 ng/mL, soft agar, 2 weeks, vs positive control): 33%; inhibition at 0.1 µM (JB6 Cl41 cells [7]; Mus musculus, JB6 Cl41, 336 h, read-out: inhibition of EGF-induced neoplastic transformation of JB6 Cl41 cells, compound 0.1 µM, EGF 1 ng/mL, soft agar, 2 weeks, vs positive control): 20%; IC50 ([8]; Homo sapiens, SK-MEL-2, 24 h, read-out: IC50, cell viability SK-MEL-2, MTS assay, 24 h): 5.6 ± 0.1 µM |
